Experimental data from patent US8435778B2, “Gene encoding lignan methyltransferase and use thereof” (Suntory Holdings Limited, priority 2010, dated 2013).

Test system: AsOMT116
Assay: Enzyme reaction of crude recombinant AsOMT116 with thujaplicatin and S-adenosylmethionine, product analysed by GC-MS
Format: biochemical, Anthrissus sylvestris
Conditions: 0.01 mM substrate, 0.04 mM S-adenosylmethionine, about 3 mg crude enzyme from E. coli, pH 7.5, 30° C., one hour; product identified as 5-methylthujaplicatin by GC-MS
Description: To clarify the biochemical enzyme functions, the enzymes were expressed in Escherichia coli. Using the plasmid for expression of AsOMT116 Escherichia coli obtained above, Escherichia coli BL21 (DE3) strain was transformed in a conventional manner. The resulting transformants were inoculated in 4 ml of LB medium (10 g/l tryptone peptone, 5 g/l yeast extract, 1 g/l NaCl) containing 50 μg/ml of ampicillin followed by shake culture at 37° C. overnight. When the cells reached the stationary phase, 4 ml of the culture broth was inoculated into 80 ml of fresh medium of the same composition, followed by shake culture at 37° C. At the point when the cell turbidity (OD600) reached approximately 0.5, 0.5 mM IPTG in a final concentration was added to the cells, followed by shake culture at 18° C. for 20 hours.
The following procedures were all carried out at 4° C. The transformants cultured were collected by centrifugation (5,000×g, 10 minutes) and suspended by adding 1 ml/g cell of lysis buffer (20 mM HEPES buffer (pH 7.5), 14 mM β-mercaptoethanol). Subsequently, the suspension was ultrasonicated (15 secs.×8 times) and then centrifuged (15,000×g, 15 minutes). The supernatant (soluble fraction) obtained was recovered as a crude enzyme solution. The crude enzyme solution was used for enzyme analysis.
Conditions for the enzyme reaction are as follows. […]

- lignan methylation activity (methylation of substrate by AsOMT116): specifically methylates the 5-position
Compound: COc1cc(C[C@H]2COC(=O)[C@@H]2Cc2cc(O)c(O)c(OC)c2)ccc1O [thujaplicatin]
